Key:
[1] = molecular target: human KEAP1 (N-term, residues 321-609) (Homo sapiens, UniProt Q14145); assay: biochemical;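 note: fluorescence polarization competition assay of Kelch domain binding to NRF2, 12-point 1:3 dilution series from 10 µM, read after 1 h at room temperature, floor 10 nM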
[2] = tested on: NQO1 mRNA in BEAS-2B cells; assay: Beas2B NQO1 mRNA cell based assay; set-up: species or system human; settings: Homo sapiens, BEAS-2B, 24 h, 24 h compound treatment, increase in NQO1 mRNA vs vehicle (0.1% DMSO), read-out: EC50
Experimental: Beas2B NQO1 mRNA Cell Based Assay
The up regulation of the NRF2 mediated gene NAD(P)H:quinone acceptor oxidoreductase 1 (NQO1) was measured using the following assay method: BEAS-2B cells (ATCC CRL-9609) were plated in 96-well clear plates at 20,000 cells/well in 75 μL of cell culture media and incubated overnight (37° C., 5% CO2). On day 2, 25 μL of compound or controls were added to the cells for 24 h. On day 3, the medium was aspirated from the plate and the Cells-to-CT™ 1-Step TaqMan® Kit (Ambion A25603) was used to perform expression analysis directly from cultured cells without RNA purification according to the manufacturer's instructions.
Briefly, cells were washed with ice cold PBS and 22.5 μL of room-temperature DNase/Lysis solution was added to the cells and incubated at room temperature for 5 minutes. To stop the reaction, 2.25 μL of stop solution was added to the cell lysate. The samples were diluted 1:5 using nuclease free water and 2.5 μL transferred into the PCR plate. Real-time PCR was performed using the C-1000 Thermal Cycler (Bio-Rad) using human beta actin as the internal control. The cDNA was amplified with a specific primer for NQO1 using the 1-step RT-PCR master mix (Ambion Cells-to-CT™ 1-Step TaqMan® Kit A25603). The primers/probes sets that were used for amplification of cDNA were obtained from TaqMan Gene Expression Assays (Applied Biosystems). The comparative CT (ΔΔCT) relative quantification method was used to calculate the relative mRNA level of the target gene NQO1 as described in the Applied Biosystems Chemistry Guide.

Sequence of human KEAP1 (N-term, residues 321-609) (Q14145 321-609): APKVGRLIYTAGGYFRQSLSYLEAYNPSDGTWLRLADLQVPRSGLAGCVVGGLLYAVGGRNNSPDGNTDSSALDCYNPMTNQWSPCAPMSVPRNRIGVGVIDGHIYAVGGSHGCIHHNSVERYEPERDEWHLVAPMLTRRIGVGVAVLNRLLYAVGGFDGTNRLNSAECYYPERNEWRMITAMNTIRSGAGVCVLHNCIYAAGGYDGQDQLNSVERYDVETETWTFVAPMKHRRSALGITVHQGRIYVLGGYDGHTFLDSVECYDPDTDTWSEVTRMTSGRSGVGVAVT

## CCn1ncc(COc2ccc(Br)c3c2[C@@H](CN2Cc4ccccc4C2=O)N(C(=O)[C@@H]2CCCC[C@@H]2C(=O)O)CC3)n1 [Example 27, (1S,2R)-2-((S)-5-bromo-8-((2-ethyl-2H-1,2,3-triazol-4-yl)methoxy)-1-((1-oxoisoindolin-2-yl)methyl)-1,2,3,4-tetrahydroisoquinoline-2-carbonyl)cyclohexane-1-carboxylic acid]
[1]
  IC50: 8.3 nM
[2]
  EC50: 18 nM

## Cc1cnc(COc2ccc(Br)c3c2[C@@H](CN2Cc4ccccc4C2=O)N(C(=O)[C@@H]2CCCC[C@@H]2C(=O)O)CC3)s1 [Example 28, (1S,2R)-2-((S)-5-Bromo-8-((5-methylthiazol-2-yl)methoxy)-1-((1-oxoisoindolin-2-yl)methyl)-1,2,3,4-tetrahydroisoquinoline-2-carbonyl)cyclohexane-1-carboxylic acid]
[1]
  IC50: 14 nM
[2]
  EC50: 93 nM

## Cn1ncnc1COc1ccc(Br)c2c1[C@@H](CN1Cc3ccccc3C1=O)N(C(=O)[C@@H]1CCCC[C@@H]1C(=O)O)CC2 [Example 29, (1S,2R)-2-((S)-5-Bromo-8-((1-methyl-1H-1,2,4-triazol-5-yl)methoxy)-1-((1-oxoisoindolin-2-yl)methyl)-1,2,3,4-tetrahydroisoquinoline-2-carbonyl)cyclohexane-1-carboxylic acid]
[1]
  IC50: 16 nM
[2]
  EC50: 100 nM

## O=C(O)[C@H]1CCCC[C@H]1C(=O)N1CCc2c(Br)ccc(OCc3cccnn3)c2[C@H]1CN1Cc2ccccc2C1=O [Example 30]
[1]
  IC50: 9.2 nM
[2]
  EC50: 17 nM

## O=C(O)[C@H]1CCCC[C@H]1C(=O)N1CCc2c(Br)ccc(OCc3cn(CC4CC4)nn3)c2[C@H]1CN1Cc2ccccc2C1=O [Example 31, (1S,2R)-2-((S)-5-bromo-8-((1-(cyclopropylmethyl)-1 1,2,3-triazol-4-yl)methoxy)-1-((1-oxoisoindolin-2-yl)methyl)-1,2,3,4-tetrahydroisoquinoline-2-carbonyl)cyclohexane-1-carboxylic acid]
[1]
  IC50: 4.5 nM
[2]
  EC50: 8.5 nM

## O=C(O)[C@H]1CCCC[C@H]1C(=O)N1CCc2c(Br)ccc(OCc3ccn4ccnc4c3)c2[C@H]1CN1Cc2ccccc2C1=O [Example 32]
[1]
  IC50: 6 nM
[2]
  EC50: 75 nM

## Cn1cnc2cc(COc3ccc(Br)c4c3[C@@H](CN3Cc5ccccc5C3=O)N(C(=O)[C@@H]3CCCC[C@@H]3C(=O)O)CC4)ccc21 [Example 33, (1S,2R)-2-((S)-5-bromo-8-((1-methyl-1H-benzo[d]imidazol-5-yl)methoxy)-1-((1-oxoisoindolin-2-yl)methyl)-1,2,3,4-tetrahydroisoquinoline-2-carbonyl)cyclohexane-1-carboxylic acid]
[1]
  IC50: 5.1 nM
[2]
  EC50: 22 nM

## Cn1cc(COc2ccc(Br)c3c2[C@@H](CN2Cc4ccccc4C2=O)N(C(=O)[C@@H]2CCCC[C@@H]2C(=O)O)CC3)nn1 [Example 34, (1S,2R)-2-((S)-5-bromo-8-((1-methyl-1H-1,2,3-triazol-4-yl)methoxy)-1-((1-oxoisoindolin-2-yl)methyl)-1,2,3,4-tetrahydroisoquinoline-2-carbonyl)cyclohexane-1-carboxylic acid]
[1]
  IC50: 5 nM
[2]
  EC50: 3.3 nM

## CC(C)n1cc(COc2ccc(Br)c3c2[C@@H](CN2Cc4ccccc4C2=O)N(C(=O)[C@@H]2CCCC[C@@H]2C(=O)O)CC3)nn1 [Example 35, (1S,2R)-2-((S)-5-Bromo-8-((1-isopropyl-1H-1,2,3-triazol-4-yl)methoxy)-1-((1-oxoisoindolin-2-yl)methyl)-1,2,3,4-tetrahydroisoquinoline-2-carbonyl)cyclohexane-1-carboxylic acid]
[1]
  IC50: 9.9 nM
[2]
  EC50: 7.5 nM

## Cc1nnc(COc2ccc(Br)c3c2[C@@H](CN2Cc4ccccc4C2=O)N(C(=O)[C@@H]2CCCC[C@@H]2C(=O)O)CC3)o1 [Example 36, (1S,2R)-2-((S)-5-bromo-8-((5-methyl-1,3,4-oxadiazol-2-yl)methoxy)-1-((1-oxoisoindolin-2-yl)methyl)-1,2,3,4-tetrahydroisoquinoline-2-carbonyl)cyclohexane-1-carboxylic acid]
[1]
  IC50: 11 nM
[2]
  EC50: 130 nM

## COc1cc(COc2ccc(Br)c3c2[C@@H](CN2Cc4ccccc4C2=O)N(C(=O)[C@@H]2CCCC[C@@H]2C(=O)O)CC3)cc2nnn(C)c12 [Example 37, (1S,2R)-2-((S)-5-bromo-8-((7-methoxy-1-methyl-1H-benzo[d][1,2,3]triazol-5-yl)methoxy)-1-((1-oxoisoindolin-2-yl)methyl)-1,2,3,4-tetrahydroisoquinoline-2-carbonyl)cyclohexane-1-carboxylic acid]
[1]
  IC50: 13 nM
[2]
  EC50: 44 nM

## Cn1nnc2cc(COc3ccc(Br)c4c3[C@@H](CN3Cc5ccccc5C3=O)N(C(=O)[C@@H]3CCCC[C@@H]3C(=O)O)CC4)ccc21 [Example 38, (1S,2R)-2-((S)-5-bromo-8-((1-methyl-1H-benzo[d][1,2,3]triazol-5-yl)methoxy)-1-((1-oxoisoindolin-2-yl)methyl)-1,2,3,4-tetrahydroisoquinoline-2-carbonyl)cyclohexane-1-carboxylic acid]
[1]
  IC50: 9.3 nM
[2]
  EC50: 17 nM

## Cn1cnc(COc2ccc(Br)c3c2[C@@H](CN2Cc4ccccc4C2=O)N(C(=O)[C@@H]2CCCC[C@@H]2C(=O)O)CC3)n1 [Example 39, (1S,2R)-2-((S)-5-bromo-8-((1-methyl-1H-1,2,4-triazol-3-yl)methoxy)-1-((1-oxoisoindolin-2-yl)methyl)-1,2,3,4-tetrahydroisoquinoline-2-carbonyl)cyclohexane-1-carboxylic acid]
[1]
  IC50: 8.3 nM
[2]
  EC50: 45 nM

## CC(C)n1ccnc1COc1ccc(Br)c2c1[C@@H](CN1Cc3ccccc3C1=O)N(C(=O)[C@@H]1CCCC[C@@H]1C(=O)O)CC2 [Example 40, (1S,2R)-2-((S)-5-bromo-8-((1-isopropyl-1H-imidazol-2-yl)methoxy)-1-((1-oxoisoindolin-2-yl)methyl)-1,2,3,4-tetrahydroisoquinoline-2-carbonyl)cyclohexane-1-carboxylic acid]
[1]
  IC50: 9 nM
[2]
  EC50: 94 nM

## Cn1nnc(COc2ccc(Br)c3c2[C@@H](CN2Cc4ccccc4C2=O)N(C(=O)[C@@H]2CCCC[C@@H]2C(=O)O)CC3)c1C(F)F [Example 41, (1S,2R)-2-((S)-5-bromo-8-((5-(difluoromethyl)-1-methyl-1H-1,2,3-triazol-4-yl)methoxy)-1-((1-oxoisoindolin-2-yl)methyl)-1,2,3,4-tetrahydroisoquinoline-2-carbonyl)cyclohexane-1-carboxylic acid]
[1]
  IC50: 5.2 nM
[2]
  EC50: 1.5 nM

## CCn1cnnc1COc1ccc(Br)c2c1[C@@H](CN1Cc3ccccc3C1=O)N(C(=O)[C@@H]1CCCC[C@@H]1C(=O)O)CC2 [Example 42, (1S,2R)-2-((S)-5-bromo-8-((4-ethyl-4H-1,2,4-triazol-3-yl)methoxy)-1-((1-oxoisoindolin-2-yl)methyl)-1,2,3,4-tetrahydroisoquinoline-2-carbonyl)cyclohexane-1-carboxylic acid]
[1]
  IC50: 7.9 nM
[2]
  EC50: 18 nM

## CCn1cnc(COc2ccc(Br)c3c2[C@@H](CN2Cc4ccccc4C2=O)N(C(=O)[C@@H]2CCCC[C@@H]2C(=O)O)CC3)c1C#N [Example 43, (1S,2R)-2-((S)-5-bromo-8-((5-cyano-1-ethyl-1H-imidazol-4-yl)methoxy)-1-((1-oxoisoindolin-2-yl)methyl)-1,2,3,4-tetrahydroisoquinoline-2-carbonyl)cyclohexane-1-carboxylic acid]
[1]
  IC50: 10 nM
[2]
  EC50: 18 nM
